From patent US20030165585A1, “Xanthine-containing compositions for oral administration and uses related thereto” (priority 2002, published 2003)

Tests used:
Assay type in all cases: in vivo, human
subjects [1] = experiment: Standard short-term memory test (repeating a read series of numbers backward); details: three of the five subjects; test 30 minutes after ingestion
Experimental: The test consisted of an examiner reading a series of numbers to the subject and the subject subsequently being asked to repeat said numbers backward. In all cases, the test was initiated 30 minutes after ingestion of the composition.

subjects [2] = experiment: Stimulant effect: scores in video game of skill Pilot Wing before and after consuming composition; details: five subjects, crossover over three days, Formulation I vs 180 mg caffeine vs placebo
Experimental: Five subjects were tested over a period of three days. […] Both prior to and after consuming the composition, each subject played a video game of skill called Pilot Wing™ made by Nintendo™.

[3] = Weight loss in overweight subjects, daily administration over two weeks; details: Formulation I (ten subjects) vs 180 mg caffeine capsules (five) vs placebo (five), FIG. 1
Source text: Weights were averaged and weight loss was charted every three days in all groups.

Cn1c(=O)c2c(ncn2C)n(C)c1=O [caffeine]
digits repeated backwards without error (subjects [1]): could not repeat this accomplishment
video game scores after consuming the composition (subjects [2]): higher scores after consuming the caffeine, compared to consuming the placebo
weight loss compared between groups [3]: not matched
